In PMC8236048, “Pharmaceutical design of a delivery system for the bacteriocin lacticin 3147” (Drug Delivery and Translational Research, 2021):

Assays:
α-chymotrypsin = biological target: T1, α-chymotrypsin (Bos taurus, UniProt P00766); experiment: Enzyme degradation of lacticin 3147 by α-chymotrypsin (activity, MALDI-TOF); type: in vitro ADME; conditions: 25 mg/ml α-chymotrypsin, 3 h, 37 °C; then growth curve at 400 nM peptides
T1 construct: purchased Sigma-Aldrich Ireland Ltd
Experimental: Lacticin 3147 production was confirmed by matrix-assisted laser desorption ionization-time of flight (MALDI-TOF) mass spectrometry using sinapinic acid as the matrix. About 0.7 μl of the matrix solution (sinapinic acid, 4 mg/ml in 50% acetone/50% methanol) was added to the target plate and left to evaporate (30 s) at ambient conditions. Individual peptides (Ltnα or Ltnβ) were resuspended in 70% IPA and mixed at a 1:1 volume ratio with a 10-mg/ml stock solution of sinapinic acid in 60% ACN with 0.1% TFA. About 0.3 μl of this peptide-matrix solution was then added to the matrix layer previously applied to the plate and evaporated at ambient conditions. The plate was inserted into a MALDI-TOF Ultraflex mass spectrometer (Bruker) and analysed using reflectron positive 700–3500 Da mode. 100 shots were fired at 88% intensity. This method was also used for the analyses of samples from the enzyme degradation studies.
Trypsin and α-chymotrypsin stock solutions (50 mg/ml) were resuspended in water. Pepsin (50 mg/ml) was resuspended in 0.02 M HCL. About 1 mg/ml individual solutions of Ltnα and Ltnβ in 70% IPA were filtered and diluted (1 in 20) in sterile PBS to give a final peptide concentration of 50 µg/ml. After this, 5.3 µl Ltnα and 4.6 µl Ltnβ were added to the same well of a 96-well plate. The pH of the lacticin 3147-pepsin solution was 2.29. Control wells consisting of Ltnα and Ltnβ together, Ltnα alone, and Ltnβ alone with no enzyme were included. The 96-well plate was incubated for 3 h at 37 °C to allow the enzyme to act. After incubation, the wells were filled to 50 μl with PBS and 150 μl of diluted bacterial cell culture (L. monocytogenes at an OD of 0.1) was added to each well. The final peptide concentration of 400 nM (1.31 µg/ml Ltnα, 1.14 µg/ml Ltnβ) was obtained when the wells were filled to 200 µl. […] The effect of the proteases pepsin, α-chymotrypsin, and trypsin on the lacticin 3147 peptides was determined by MALDI-TOF mass spectrometry. […] After 3 h, 1 µl was removed from each sample and it was analysed by MALDI-TOF mass spectrometry. […]

[1] = test system: L. monocytogenes ATCC 1916; experiment: Growth curve bioactivity assay versus L. monocytogenes ATCC 1916; type: cell-based; conditions: 0.5 h, 37 °C, 300 rpm, 0.2 µm PES filtered, growth curve 24 h
Experimental: An overnight culture of L. monocytogenes ATCC1916 was grown in TSB media supplemented with 6 g/L yeast at 37 °C. Freeze-dried Ltnα and Ltnβ were resuspended individually in 70% IPA to make a 1-mg/ml solution and filtered through a 0.2-µm filter (polyethersulfone) PES filter. They were then diluted in sterile PBS to a final peptide concentration of 50 µg/ml. Peptide solutions were added in triplicate to a 96-well plate with sufficient PBS to give a volume of 50 µl. 150 µl of diluted bacterial cell culture (optical density (OD) of 0.1 at 595 nm) was then added to the wells. Final peptide concentrations of 150 nM (0.50 µg/ml Ltnα, 0.43 µg/ml Ltnβ), 300 nM (0.99 µg/ml Ltnα, 0.85 µg/ml Ltnβ), and 400 nM (1.31 µg/ml Ltnα, 1.14 µg/ml Ltnβ) were obtained when the wells were filled to 200 µl. Blanks were set up in triplicate with media only and PBS only. The three control wells were also set up with bacterial culture and PBS only. The 96-well plate was incubated in a Biotek ELx808 Ultra microplate reader at 37 °C for 24 h. Readings were taken at a wavelength of 590 nm every 30 min for 24 h with the plate shaken mildly before each reading.
An excess quantity of freeze-dried Ltnα and Ltnβ were resuspended individually in PBS buffer/FaSSGF/FaSSIF. The samples were then incubated for 0.5 h at 37 ± 0.5 °C with stirring at 300 rpm. At the end of the incubation period, samples were filtered through a 0.2-µm PES syringe filter and employed in the in vitro activity assay. Briefly, 25 µl of each of the filtered peptide solutions were added in triplicate to the same wells of a 96-well plate. Three control wells were set up containing 50 µl of PBS alone. 150 μl of L. monocytogenes ATCC 1916 with an OD of 0.1 at 595 nm was added to each well. The 96-well plate was then incubated in a Biotek ELx808 Ultra microplate reader at 37 °C for 24 h. The readings were taken as previously described.

L. lactis HP = conditions: at a neutral pH; cited from earlier work
From the text: Lacticin 3147 is a two-peptide (Ltnα and Ltnβ) bacteriocin produced by Lactococcus lactis DPC6577 (Fig. 1). It is classified as a lantibiotic due to the presence of lanthionine rings in its structure. The two peptides act synergistically, targeting lipid II, a precursor of peptidoglycan synthesis in Gram-positive bacteria, leading to inhibition of cell wall synthesis, pore formation, and eventual cell death. […] These masses correspond with those previously reported in the literature. Lacticin 3147′s activity against various strains including L. monocytogenes and C. difficile has been previously reported in the literature; however, for the purpose of this study, L. monocytogenes was used to establish the impact of solution composition, pH, and process ...

lacticin 3147
activity against L. monocytogenes ATCC 1916 after incubation with α-chymotrypsin (α-chymotrypsin): growth curve similar to that of the bacterial control | activity against L. monocytogenes ATCC 1916 after addition in excess to FaSSGF and filtration ([1]; FaSSGF (pH 1.6)): active | activity against L. monocytogenes ATCC 1916 after addition in excess to FaSSIF and filtration ([1]; FaSSIF (pH 6.5)): active | activity against L. monocytogenes ATCC 1916 after addition in excess to PBS and filtration ([1]; PBS (pH 7.4)): active | activity against L. lactis subsp. cremoris HP (L. lactis HP): active
